Results on one compound are retold here after ChEMBL document CHEMBL2321873, “1-(4-Phenylpiperazin-1-yl)-2-(1H-pyrazol-1-yl)ethanones as novel CCR1 antagonists” (Bioorg Med Chem Lett, 2013).

The test system of data set [1] is Cytomegalovirus. Nature of the data set: Antagonist activity at CMV US28 assessed as inhibition of calcium flux at 10 uM. In general terms: A change in cytosolic calcium serves as a functional read-out for many receptors and channels.
In data set [2] the target is T1, C-X-C chemokine receptor type 5 (Homo sapiens) (UniProt P32302).
T1 sequence (whole entry): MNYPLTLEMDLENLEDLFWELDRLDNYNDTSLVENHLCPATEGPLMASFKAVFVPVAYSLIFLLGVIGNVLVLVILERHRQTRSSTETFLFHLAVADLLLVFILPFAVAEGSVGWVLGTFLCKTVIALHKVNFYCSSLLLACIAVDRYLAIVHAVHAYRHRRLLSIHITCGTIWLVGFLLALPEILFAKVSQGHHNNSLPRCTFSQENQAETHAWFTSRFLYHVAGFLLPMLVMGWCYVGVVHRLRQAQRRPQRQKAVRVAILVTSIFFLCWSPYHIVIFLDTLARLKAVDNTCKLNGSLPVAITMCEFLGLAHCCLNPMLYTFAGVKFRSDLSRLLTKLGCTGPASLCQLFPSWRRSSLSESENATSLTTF
Nature of the data set: Antagonist activity at CXCR5 (unknown origin) assessed as inhibition of chemotaxis at 10 uM.

Data set [3] relates to Cytomegalovirus. Description: Antagonist activity at CMV US28 assessed as inhibition of chemotaxis at 10 uM.
Data set [4] relates to Rattus norvegicus. Description: Toxicity in Sprague-Dawley rat assessed as necropsy at 70 to 360 mg/kg, po after 7 days. Format: organism-based. Set-up: dose 70-360 mg/kg, route oral. Conditions: in vivo, 168 h.
Data set [5] has as its target T2, C-C chemokine receptor-like 2 (Homo sapiens) (UniProt O00421).
T2 sequence (whole entry): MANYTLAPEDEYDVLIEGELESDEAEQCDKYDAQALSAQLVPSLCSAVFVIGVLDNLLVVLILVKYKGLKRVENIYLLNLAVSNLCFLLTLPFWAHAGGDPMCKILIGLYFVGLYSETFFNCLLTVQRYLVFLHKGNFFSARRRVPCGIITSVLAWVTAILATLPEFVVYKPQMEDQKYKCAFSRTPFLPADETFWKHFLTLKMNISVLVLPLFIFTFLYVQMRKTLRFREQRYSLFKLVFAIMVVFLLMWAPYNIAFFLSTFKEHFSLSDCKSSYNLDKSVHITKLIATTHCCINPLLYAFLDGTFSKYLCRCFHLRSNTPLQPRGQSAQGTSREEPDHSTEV
Nature of the data set: Antagonist activity at CCR11 (unknown origin) assessed as inhibition of chemotaxis at 10 uM.

Data set [6] has as its target T3, C-C chemokine receptor type 10 (Homo sapiens) (UniProt P46092).
T3 sequence (whole entry): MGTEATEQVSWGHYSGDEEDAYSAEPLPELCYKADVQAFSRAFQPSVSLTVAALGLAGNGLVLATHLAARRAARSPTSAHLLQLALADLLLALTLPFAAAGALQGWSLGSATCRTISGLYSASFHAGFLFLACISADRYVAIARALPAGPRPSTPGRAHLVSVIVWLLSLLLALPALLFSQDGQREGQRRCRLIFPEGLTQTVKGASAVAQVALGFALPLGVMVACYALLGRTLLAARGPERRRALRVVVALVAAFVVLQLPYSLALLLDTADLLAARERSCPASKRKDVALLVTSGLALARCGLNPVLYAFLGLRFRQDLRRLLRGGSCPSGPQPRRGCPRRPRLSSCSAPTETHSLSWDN
Nature of the data set: Antagonist activity at CCR10 (unknown origin) assessed as inhibition of calcium flux at 10 uM. Format: functional.

The target in data set [7] is C-C chemokine receptor type 1 (Mus musculus, UniProt P51675). Nature of the data set: Displacement of [125I]-CCL3/MIP-1alpha from CCR1 in mouse WEHI274.1 cells. Format: cell-based. In general terms: In a radioligand displacement assay an active substance lowers the binding of a labelled ligand.
Data set [8] in a line: Half life in Beagle dog at 1 mg/kg, iv. Details: dose 1 mg/kg, route intravenous. Conditions: in vivo. Format: ADME, organism-based, Canis lupus familiaris.
Data set [9] concerns Salmonella typhimurium. Description: Genotoxicity in Salmonella typhimurium by Ames test in presence of S9 fractions. Format: toxicity, organism-based, S9 Fraction. Conditions: salmonella enterica subsp. enterica serovar typhimurium. For orientation: The Ames test uses bacterial strains that need an amino acid and regain growth without it when mutated back.
Data set [10] deals with T4, C-X-C chemokine receptor type 2 (Homo sapiens) (UniProt P25025).
T4 sequence (whole entry): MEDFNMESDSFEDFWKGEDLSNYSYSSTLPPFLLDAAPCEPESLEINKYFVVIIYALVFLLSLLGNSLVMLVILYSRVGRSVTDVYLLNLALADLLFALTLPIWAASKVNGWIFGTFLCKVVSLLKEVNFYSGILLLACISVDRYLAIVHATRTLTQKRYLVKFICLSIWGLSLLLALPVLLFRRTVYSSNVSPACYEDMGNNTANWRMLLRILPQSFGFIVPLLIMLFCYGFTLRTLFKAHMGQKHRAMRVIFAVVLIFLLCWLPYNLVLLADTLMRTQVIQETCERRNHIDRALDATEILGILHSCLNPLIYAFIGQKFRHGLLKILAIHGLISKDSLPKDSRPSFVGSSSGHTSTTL
Description: Binding affinity to CXCR2 (unknown origin) at 10 uM by radioligand displacement assay.

For data set [11], the system named is Rattus norvegicus. Description: Acute toxicity in Sprague-Dawley rat up to 1000 mg/kg. Set-up: dose 1000 mg/kg. Format: organism-based. As to conditions: in vivo.
Data set [12] has as its target T5, C-C chemokine receptor type 3 (Homo sapiens) (UniProt P51677).
T5 sequence (whole entry): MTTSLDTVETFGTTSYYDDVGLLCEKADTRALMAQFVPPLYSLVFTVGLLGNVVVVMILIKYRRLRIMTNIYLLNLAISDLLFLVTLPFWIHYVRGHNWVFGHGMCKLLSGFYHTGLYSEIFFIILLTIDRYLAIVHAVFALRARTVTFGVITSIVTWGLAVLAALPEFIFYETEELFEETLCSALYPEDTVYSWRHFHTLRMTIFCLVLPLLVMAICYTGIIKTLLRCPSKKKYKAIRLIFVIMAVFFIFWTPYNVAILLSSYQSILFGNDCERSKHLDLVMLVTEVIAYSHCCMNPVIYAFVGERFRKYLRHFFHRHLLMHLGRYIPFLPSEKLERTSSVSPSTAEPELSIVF
Nature of the data set: Antagonist activity at CCR3 (unknown origin) assessed as inhibition of calcium flux at 10 uM. It counts as functional.

Data set [13] deals with Cytomegalovirus. Description: Binding affinity to CMV US28 at 10 uM by radioligand displacement assay.
The target in data set [14] is Cytochrome P450 1A2 (Homo sapiens, UniProt P05177). Description: Competitive inhibition of CYP1A2 (unknown origin). It counts as ADME.
Data set [15] deals with Atypical chemokine receptor 3 (Homo sapiens) (UniProt P25106). Description: Antagonist activity at CXCR7 (unknown origin) assessed as inhibition of calcium flux at 10 uM. Format: functional.
Data set [16] deals with T6, C-X-C chemokine receptor type 3 (Homo sapiens) (UniProt P49682).
T6 sequence (whole entry): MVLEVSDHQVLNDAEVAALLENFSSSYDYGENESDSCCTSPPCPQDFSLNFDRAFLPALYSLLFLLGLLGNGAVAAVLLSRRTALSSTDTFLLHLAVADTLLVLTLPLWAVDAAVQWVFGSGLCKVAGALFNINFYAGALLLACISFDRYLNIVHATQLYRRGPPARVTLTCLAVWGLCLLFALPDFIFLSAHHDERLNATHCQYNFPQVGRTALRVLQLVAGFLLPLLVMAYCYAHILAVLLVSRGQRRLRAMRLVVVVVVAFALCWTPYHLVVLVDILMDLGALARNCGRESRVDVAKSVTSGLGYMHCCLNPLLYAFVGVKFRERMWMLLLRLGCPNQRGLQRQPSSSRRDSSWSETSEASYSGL
Description: Binding affinity to CXCR3 (unknown origin) at 10 uM by radioligand displacement assay.

Active and inactive are the calls of the source. The calls are words filed in the database; no cut-off is given here.

Sequence of Atypical chemokine receptor 3 (Homo sapiens) (P25106 whole entry): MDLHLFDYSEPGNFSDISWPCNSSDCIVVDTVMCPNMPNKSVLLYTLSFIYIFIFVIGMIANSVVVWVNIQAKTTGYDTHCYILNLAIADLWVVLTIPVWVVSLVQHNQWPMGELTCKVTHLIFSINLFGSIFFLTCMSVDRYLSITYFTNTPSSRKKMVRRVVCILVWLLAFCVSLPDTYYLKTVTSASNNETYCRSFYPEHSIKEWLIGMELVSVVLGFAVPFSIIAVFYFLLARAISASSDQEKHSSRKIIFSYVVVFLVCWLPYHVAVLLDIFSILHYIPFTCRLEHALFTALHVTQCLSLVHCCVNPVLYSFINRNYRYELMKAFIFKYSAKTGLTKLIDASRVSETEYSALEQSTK
Sequence of C-C chemokine receptor type 1 (P51675 whole entry): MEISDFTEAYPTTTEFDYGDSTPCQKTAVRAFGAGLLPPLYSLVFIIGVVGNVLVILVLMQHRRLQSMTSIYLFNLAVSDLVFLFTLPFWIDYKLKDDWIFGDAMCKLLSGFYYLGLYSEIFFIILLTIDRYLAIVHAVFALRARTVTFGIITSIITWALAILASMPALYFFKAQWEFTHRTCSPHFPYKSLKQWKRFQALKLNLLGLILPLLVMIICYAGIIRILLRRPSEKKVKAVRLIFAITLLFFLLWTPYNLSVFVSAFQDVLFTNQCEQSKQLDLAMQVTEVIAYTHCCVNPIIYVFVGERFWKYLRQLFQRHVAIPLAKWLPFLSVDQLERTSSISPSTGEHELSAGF
Sequence of Cytochrome P450 1A2 (P05177 whole entry): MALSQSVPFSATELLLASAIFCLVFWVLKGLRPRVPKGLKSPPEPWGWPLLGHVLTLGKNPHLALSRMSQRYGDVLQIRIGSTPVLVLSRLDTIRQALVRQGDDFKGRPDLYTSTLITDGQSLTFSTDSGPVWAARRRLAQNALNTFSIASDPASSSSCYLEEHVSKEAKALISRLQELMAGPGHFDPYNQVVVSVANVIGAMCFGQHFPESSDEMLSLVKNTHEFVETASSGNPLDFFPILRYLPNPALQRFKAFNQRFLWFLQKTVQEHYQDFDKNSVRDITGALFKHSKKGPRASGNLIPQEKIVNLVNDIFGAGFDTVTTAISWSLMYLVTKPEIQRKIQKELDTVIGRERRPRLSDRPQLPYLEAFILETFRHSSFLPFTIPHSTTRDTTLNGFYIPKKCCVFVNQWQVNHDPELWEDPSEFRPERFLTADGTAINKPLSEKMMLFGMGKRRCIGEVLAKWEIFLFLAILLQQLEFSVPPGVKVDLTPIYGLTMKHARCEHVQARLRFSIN

As for `COc1cc(N2CCN(C(=O)Cn3nc(C(F)(F)F)c(Cl)c3C)CC2)ccc1Cl`, the inhibition result in data set [1], in data set [2], in data set [3], in [5], in [6] and in data set [12] was “inactive” each time. Besides, the inhibition entry in data set [15] is “inactive”. Further, the Activity result in data set [4], in [9] and in data set [11] was “Non-toxic” throughout. The IC50 in [7] was 3 µM; in [14], over 10 µM. In [8], this compound showed a half-life of 13.4 h. The result in data set [10], in data set [13] and in data set [16] was inactive.

The IC50 is the point on the concentration scale where inhibition reaches its midpoint. As a reminder, the half-life is the time in which the quantity being followed falls by half. High values mean slow decline, low ones rapid decline.
